In PubChem BioAssay AID1963981 (Molecular Pharmacology Branch, DTP, NCI, 2024):

Test system: 354836-022-R-J1-PDC multicell spheroid viability
Assay: Anticancer human tumor 354836-022-R-J1-PDC patient-derived head and neck squamous cell carcinoma cell line growth inhibition [PI3K]
Conditions: for IC50: curve of first compound; for viability, T/C: stronger effect = lower value; active = viability on the fitted dose curve at most 10% of control; inactive = the rest
Summary of the method: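 Complex 3D spheroids (cancer cells + endothelial HUVEC + mesenchymal stem cells); drug pairs of targeted agent x inavolisib/alpelisib/duvelisib/copanlisib; half-log series from ~Cmax, max 10 microM if Cmax unknown; endpoint viability.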
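Also: spheroids exposed to agents for seven days before the viability read.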

CC(C)NCC(C(=O)N1CCN(c2ncnc3c2C(C)CC3O)CC1)c1ccc(Cl)cc1 (configuration not stated) + COc1c(OCCCN2CCOCC2)ccc2c3n(c(=NC(=O)c4cnc(N)nc4)nc12)CCN3
305 nM: IC50 (second compound 0.00316 µM)
inactive: viability, T/C (second compound 0.00316 µM, first compound 0.0316 µM) 90.8% | viability, T/C (second compound 0.00316 µM, first compound 0.1 µM) 68.1% | viability, T/C (second compound 0.00316 µM, first compound 0.316 µM) 52.3% | viability, T/C (second compound 0.00316 µM, first compound 1 µM) 28.5% | viability, T/C (second compound 0.00316 µM, first compound 3.16 µM) 9.34% | viability, T/C (second compound 0.01 µM, first compound 0.0316 µM) 87.6% | viability, T/C (second compound 0.01 µM, first compound 0.1 µM) 66.5% | viability, T/C (second compound 0.01 µM, first compound 0.316 µM) 42.9% | viability, T/C (second compound 0.01 µM, first compound 1 µM) 24.8% | viability, T/C (second compound 0.01 µM, first compound 3.16 µM) 9.85% | viability, T/C (second compound 0.0316 µM, first compound 0.0316 µM) 68.8% | viability, T/C (second compound 0.0316 µM, first compound 0.1 µM) 52.7% | viability, T/C (second compound 0.0316 µM, first compound 0.316 µM) 34.5% | viability, T/C (second compound 0.0316 µM, first compound 1 µM) 19.4% | viability, T/C (second compound 0.1 µM, first compound 0.0316 µM) 43% | viability, T/C (second compound 0.1 µM, first compound 0.1 µM) 39.6% | viability, T/C (second compound 0.1 µM, first compound 0.316 µM) 26.3% | viability, T/C (second compound 0.1 µM, first compound 1 µM) 13.3% | viability, T/C (second compound 0.316 µM, first compound 0.0316 µM) 11.6%
227 nM: IC50 (second compound 0.01 µM)
active: viability, T/C (second compound 0.00316 µM, first compound 10 µM) 2.4% | viability, T/C (second compound 0.01 µM, first compound 10 µM) 2.96% | viability, T/C (second compound 0.0316 µM, first compound 3.16 µM) 7.83% | viability, T/C (second compound 0.0316 µM, first compound 10 µM) 2.13% | viability, T/C (second compound 0.1 µM, first compound 3.16 µM) 3.65% | viability, T/C (second compound 0.1 µM, first compound 10 µM) 1.29% | viability, T/C (second compound 0.316 µM, first compound 0.1 µM) 11.2% | viability, T/C (second compound 0.316 µM, first compound 0.316 µM) 5.73% | viability, T/C (second compound 0.316 µM, first compound 1 µM) 3.46% | viability, T/C (second compound 0.316 µM, first compound 3.16 µM) 1.76% | viability, T/C (second compound 0.316 µM, first compound 10 µM) 0.91% | viability, T/C (second compound 1 µM, first compound 0.0316 µM) 1.35% | viability, T/C (second compound 1 µM, first compound 0.1 µM) 1.54% | viability, T/C (second compound 1 µM, first compound 0.316 µM) 1.33% | viability, T/C (second compound 1 µM, first compound 1 µM) 1.12% | viability, T/C (second compound 1 µM, first compound 3.16 µM) 1.14% | viability, T/C (second compound 1 µM, first compound 10 µM) 0.88%
119 nM: IC50 (second compound 0.0316 µM)
< 31.6 nM: IC50 (second compound 0.1 µM) | IC50 (second compound 0.316 µM) | IC50 (second compound 1 µM)
